Laboratory results as given in PMC10611796, “The α-synuclein PET tracer [18F] ACI-12589 distinguishes multiple system atrophy from other neurodegenerative diseases” (Nature Communications, 2023).

Molecular target: T1, α-synuclein (Homo sapiens, UniProt P37840)
T1 construct: gene SNCA; pathological α-syn aggregates in post-mortem human brain tissue
Assay: radioligand saturation binding (autoradiography and radiobinding) on human brain tissue; displacement by unlabeled ACI-12589; micro-autoradiography

- Kd: 33.5 ± 17.4 nM
Substance: ACI-12589
